Test results from patent US8802675B2, “Neuroprotective multifunctional compounds and pharmaceutical compositions comprising them” (priority 2009, dated 2014).
“And” between values parts separate entries of the source, which are not always exact repeats. Identical values can stand only once. Like-named read-outs stand apart in the source and are kept apart here.

Experiments:
rat brain MAO-A = target: T1, rat brain MAO-A (Rattus norvegicus, UniProt P21396); test: biochemical
T1 construct: from tissue; host or cells: rat brain homogenate
T1 sequence (P21396 1-526): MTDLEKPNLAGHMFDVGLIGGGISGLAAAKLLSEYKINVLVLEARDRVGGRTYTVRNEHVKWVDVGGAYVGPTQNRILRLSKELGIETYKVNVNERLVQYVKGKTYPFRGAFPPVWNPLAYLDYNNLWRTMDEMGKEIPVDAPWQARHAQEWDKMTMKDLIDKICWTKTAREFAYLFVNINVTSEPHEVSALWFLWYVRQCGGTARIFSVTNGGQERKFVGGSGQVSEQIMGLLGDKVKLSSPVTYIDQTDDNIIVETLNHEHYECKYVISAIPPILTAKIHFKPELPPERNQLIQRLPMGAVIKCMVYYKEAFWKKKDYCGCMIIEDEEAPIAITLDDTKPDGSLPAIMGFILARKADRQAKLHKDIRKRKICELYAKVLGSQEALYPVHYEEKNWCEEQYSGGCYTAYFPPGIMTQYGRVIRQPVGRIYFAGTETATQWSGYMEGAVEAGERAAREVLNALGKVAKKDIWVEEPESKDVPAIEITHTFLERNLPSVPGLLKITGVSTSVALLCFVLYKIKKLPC
Description: (§1) Rats were decapitated and the brains were quickly taken into a pre-weighted ice-cold sucrose buffer (10 mM Tris-HCl buffer, pH 7.4, containing 0.32 M sucrose), and their weights were measured. The brains were homogenized at 0-4° C. in 0.32 M sucrose (one part tissue to 20 parts sucrose) in a Teflon glass homogenizer. The resultant homogenates were used to determine MAO activity. Protein concentration was determined with Bradford reagent at 595 nm, using bovine serum albumin as a standard.
(§2) The activity of MAO-A and MAO-B were determined by the adapted method of Tipton & Youdim (Tipton et al. 1983). Briefly, the multifunctional compound tested was added to a suitable dilution of the enzyme preparation (70 μg MAO-B and 150 μg MAO-A) in 0.05 M phosphate buffer (pH 7.4). The mixture was incubated together with 0.05 μM 1-deprenyl, a specific inhibitor of MAO-B (for determination of MAO-A activity in the presence of the test compound) or 0.05 μM clorgyline a specific inhibitor of MAO-A (for determination of MAO-B activity). […] The reaction was stopped with 2M ice-cold citric acid, and the radioactive metabolites (5-hydroxytryptaldehyde and phenylacetaldehyde) were extracted by addition of 2 ml of ethylacetate/toluene (1:1 vol/vol). The radioactivity contained in the organic phase was determined by liquid-scintillation counting in cpm units.
(§3) MAO-A and MAO-B activities were determined in rat brain homogenate in vitro following incubation with varying concentrations of the test compounds.
(§4) The results are the mean SEM, n=3 in triplicates.

rat brain MAO-B = target: T2, rat brain MAO-B (Rattus norvegicus, UniProt P19643); test: biochemical; settings: for inhibition at 10 µM: read-out: percent inhibition MAO-B
T2 construct: from tissue; host or cells: rat brain homogenate
T2 sequence (P19643 1-520): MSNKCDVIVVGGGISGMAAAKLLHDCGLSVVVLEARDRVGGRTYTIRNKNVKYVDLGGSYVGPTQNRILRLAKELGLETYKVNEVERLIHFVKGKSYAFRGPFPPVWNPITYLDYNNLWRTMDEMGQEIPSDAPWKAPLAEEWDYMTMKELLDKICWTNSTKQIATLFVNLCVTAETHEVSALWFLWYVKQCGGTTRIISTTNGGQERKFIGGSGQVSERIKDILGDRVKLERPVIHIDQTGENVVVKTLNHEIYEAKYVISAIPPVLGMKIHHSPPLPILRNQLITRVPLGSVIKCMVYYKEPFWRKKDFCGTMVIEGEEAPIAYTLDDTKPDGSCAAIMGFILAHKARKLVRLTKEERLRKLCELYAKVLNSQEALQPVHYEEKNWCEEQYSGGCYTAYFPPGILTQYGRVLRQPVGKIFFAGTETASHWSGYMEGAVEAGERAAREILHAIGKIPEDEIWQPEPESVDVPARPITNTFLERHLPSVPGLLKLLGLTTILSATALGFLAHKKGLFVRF
Description: as §1, §2, §3, §4

[1] = target: T3, butyrylcholinesterase (BuChE) (Rattus norvegicus, UniProt Q9JKC1); test: Butyrylcholinesterase inhibition in rat brain homogenates (Ellman); format: biochemical; settings: mean SEM, n=3 in triplicates
T3 construct: total cholinesterase (ChE) and butyrylcholinesterase (BuChE) activities in rat brain homogenates; from tissue; host or cells: brain homogenate (10% w/v) of adult Wistar rats
Description: Cholinesterase activity was determined in rat brain homogenate following incubation with varying concentrations of the multifunctional pro-chelators of the invention (also referred to herein as “carbamates”).
Ellman's colorimetric method was adapted for determination of total cholinesterase (ChE) and butyrylcholinesterase (BuChE) activities in rat brain homogenates. Brain tissue from adult Wistar rats was homogenized at 2% w/v (or 10% w/v, for BuChE) in 0.1 M sodium phosphate buffer, pH 7.4, with added NaCl 58.5 g/l and Triton X-100 0.05% v/v. Aliquots of homogenate (20 μl) were incubated with the test compounds for designed time intervals in phosphate buffer pH 7.4, before addition of 5,5′-dithiobis(2-nitrobenzoic) acid and either 1 mM acetylthiocholine iodide or 10 mM butyrylthiocholine iodide (Sigma, St. Louis, Mo.). The reaction was run at 37° C. in a final volume of […] in 96-well microplates and was followed at 412 nm for 5 min with a plate reader. In every experiment, cholinesterase-independent (nonspecific) substrate hydrolysis was determined by including one experimental group treated with tacrine 30 μM. Appropriate tissue and reagent blanks were also included. Reaction velocities were determined in three or four replicates per condition; these were averaged and expressed as percent activity relative to control (solvent), after subtracting the rate of nonspecific hydrolysis.
The results are the mean SEM, n=3 in triplicates. ND—not determined.

[2] = IC50 MAO-A, rat brain homogenate in vitro, mean SEM, n=3 in triplicates
[3] = IC50 MAO-B, rat brain homogenate in vitro, mean SEM, n=3 in triplicates

T3 sequence (Q9JKC1 24-597): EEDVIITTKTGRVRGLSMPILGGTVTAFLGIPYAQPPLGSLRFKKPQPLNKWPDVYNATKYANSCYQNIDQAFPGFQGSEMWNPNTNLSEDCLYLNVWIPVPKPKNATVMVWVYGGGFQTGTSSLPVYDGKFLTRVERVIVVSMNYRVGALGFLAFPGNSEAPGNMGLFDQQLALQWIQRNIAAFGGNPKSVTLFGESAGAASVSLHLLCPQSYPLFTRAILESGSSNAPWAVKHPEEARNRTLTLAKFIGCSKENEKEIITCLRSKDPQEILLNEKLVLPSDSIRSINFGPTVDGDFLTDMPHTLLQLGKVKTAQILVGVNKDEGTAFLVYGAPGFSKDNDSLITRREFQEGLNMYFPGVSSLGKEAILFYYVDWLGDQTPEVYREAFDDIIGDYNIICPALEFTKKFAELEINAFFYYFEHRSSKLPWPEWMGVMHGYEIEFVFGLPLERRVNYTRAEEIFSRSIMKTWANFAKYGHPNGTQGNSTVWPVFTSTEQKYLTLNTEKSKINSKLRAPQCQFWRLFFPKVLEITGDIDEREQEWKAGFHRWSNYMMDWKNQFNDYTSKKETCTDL

| Structure (SMILES) | inhibitory effect on MAO-A (rat brain MAO-A; rat brain homogenate) | inhibition at 10 µM (rat brain MAO-A; read-out: percent inhibition MAO-A) [%] | inhibitory effect on MAO-B (rat brain MAO-B; rat brain homogenate) | inhibition at 10 µM (rat brain MAO-B) [%] | IC50 [1] [nM] | IC50 (rat brain MAO-A; [2]) | IC50 (rat brain MAO-B; [3]) | IC50 (rat brain MAO-A) [nM] | IC50 (rat brain MAO-B) [nM] |
| --- | --- | --- | --- | --- | --- | --- | --- | --- | --- |
| C#CCC1CCN(Cc2ccc(OC(=O)N(C)C)c3ncccc23)CC1 [Compound 23, 5-((4-(propargyl)piperidin-1-yl)methyl)quinolin-8-yl dimethylcarbamate] | minor to none inhibitory effects | 13 | minor to none inhibitory effects | 3 | 42600 ± 6670 |  |  |  |  |
| C#CCN(C)Cc1ccc(OC(=O)N(C)CC)c2ncccc12 [Compound 3, 5-((methyl(propargyl)amino)methyl)quinolin-8-yl ethyl(methyl)carbamate] |  |  |  | 9 | 60700 ± 5330 | < 100 nM |  |  |  |
| C#CCN(C)Cc1ccc(OC(=O)N2CCN(Cc3ccccc3)CC2)c2ncccc12 [Compound 13, 5-((methyl(propargyl)amino)methyl)quinolin-8-yl 4-benzyl piperazine-1-carboxylate] |  |  |  |  | 46000 ± 3500 | 4.7 to 20 nM and 20 nM | 84 nM |  |  |
| C#CCN(C)Cc1ccc(O)c2ncccc12 [M30, reference compound] |  |  |  |  |  |  |  | 37 ± 20 | 57 ± 10 |
| C#CCN(C)Cc1ccc(OC(=O)N2CCCC2)c2ncccc12 [Compound 5, 5-((methyl(propargyl)amino)methyl)quinolin-8-yl pyrrolidine-1-carboxylate] |  |  |  |  | 31200 ± 6100 | 4.7 to 20 nM and 4.9 nM | 5060 nM and 5600 nM |  |  |
